20 compounds from US11919902B2, “Aryl-bipyridine amine derivatives as phosphatidylinositol phosphate kinase inhibitors” (HiberCell, Inc., priority 2017, dated 2024) can be followed below.

One assay has as its target T1, GST tagged PIP4KtypeIIB (Homo sapiens, UniProt P78356).
T1 construct: made in house; host or cells: E. coli
T1 sequence (P78356 1-416): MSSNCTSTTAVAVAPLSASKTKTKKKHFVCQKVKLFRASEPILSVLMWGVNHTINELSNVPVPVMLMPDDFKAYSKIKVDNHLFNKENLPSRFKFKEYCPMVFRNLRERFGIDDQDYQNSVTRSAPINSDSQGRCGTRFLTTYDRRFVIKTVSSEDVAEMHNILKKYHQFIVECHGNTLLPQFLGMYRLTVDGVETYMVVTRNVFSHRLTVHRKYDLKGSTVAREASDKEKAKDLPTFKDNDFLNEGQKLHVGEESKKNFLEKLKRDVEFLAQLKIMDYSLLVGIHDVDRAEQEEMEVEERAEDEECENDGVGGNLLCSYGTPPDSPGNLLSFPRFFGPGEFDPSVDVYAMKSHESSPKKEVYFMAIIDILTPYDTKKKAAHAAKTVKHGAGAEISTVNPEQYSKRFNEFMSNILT
Kind of assay: Trans-FI P kinase assay PIP4K2B (PIP4KtypeIIB inhibition assay). As to conditions: Table 4; compounds listed under IC50 range headings; 100 uM GTP, 5 nM PIP4KIIB; read-out: Trans-FI P kinase assays: PIP4K2B IC50. The format is biochemical. Put shortly:
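Purified GST-PIP4KIIB (5 nM final), 1 h preincubation with compound at 27 C, then 2 h reaction with 100 uM GTP and 80 uM PI5P plus DOPE carrier lipid in pH 7.3 HEPES/MgCl2/Triton buffer with 5% DMSO. GDP read by Transcreener FI fluorescence against a calibration curve; IC50 from % no-inhibitor activity vs log concentration.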

Another assay concerns the target T2, GST tagged PIP4KtypeIIA (Homo sapiens, UniProt P48426).
T2 construct: made in house; host or cells: E. coli
T2 sequence (P48426 1-406): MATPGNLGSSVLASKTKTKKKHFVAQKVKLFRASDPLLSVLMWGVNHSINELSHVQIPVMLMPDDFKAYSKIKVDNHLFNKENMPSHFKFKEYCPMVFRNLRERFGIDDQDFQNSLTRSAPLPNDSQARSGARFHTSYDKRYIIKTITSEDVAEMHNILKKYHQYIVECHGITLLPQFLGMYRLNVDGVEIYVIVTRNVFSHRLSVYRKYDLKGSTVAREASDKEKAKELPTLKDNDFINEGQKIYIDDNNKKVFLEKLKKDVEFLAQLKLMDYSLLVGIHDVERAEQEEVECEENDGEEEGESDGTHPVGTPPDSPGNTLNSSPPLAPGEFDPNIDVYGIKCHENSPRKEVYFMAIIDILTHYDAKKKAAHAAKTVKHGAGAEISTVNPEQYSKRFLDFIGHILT
Kind of assay: ADP-glo kinase assay PIP4K 2A (PIP4KtypeIIA inhibition assay). The format is biochemical. As to conditions: Table 3; compounds listed under IC50 range headings; 10 uM ATP, 0.5 nM PIP4KIIA. Put shortly:
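E. coli-expressed GST-PIP4KtypeIIA (0.5 nM final) was preincubated 1 h at 27 °C with compound (up to 4.8 μM, 5% DMSO) in PI5P/DOPE lipid in 50 mM HEPES pH 7.3 with 10 mM MgCl2. The reaction was started with 10 μM ATP (final) and run 1 h. ADP was read by ADP-Glo luminescence via a calibration curve, and IC50 was taken from % residual activity.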
In general terms: In ADP-Glo the light output rises with the ADP produced.

For assay [1], the target named is T3, PIP4K2A (full length protein, SignalChem) (Homo sapiens, UniProt P48426).
T3 construct: 4 nM PIP4K2A (full length protein, SignalChem); purchased SignalChem
T3 sequence (P48426 1-406): T2 sequence (P48426 1-406)
Kind of assay: Kinase Assay PIP4K2 A (Sprint); ADP-Glo biochemical assay. As to conditions: Table 2; compounds listed under IC50 range headings. Put shortly:
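Compounds (10-point, 3-fold dilutions) were pre-incubated 15 min at RT with an enzyme/substrate mix of 4 nM full-length PIP4K2A and 100 μM PI(5)P diC8 in 20 mM MOPS pH 7.2, 25 mM MgCl2, 0.005% Tween 20. A 60 μM ATP solution was added, reaction 1 h RT; ADP read by ADP-Glo luminescence, IC50 fitted from % inhibition vs DMSO.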

Where only a bound is given, the exact number is not on record here.

On to `O=C1CCCN1c1ccc(-c2cncc(-c3c[nH]c4ncc(Cl)cc34)c2)cc1` [Example 27, 1-(4-(5-(5-chloro-1H-pyrrolo[2,3-b]pyridin-3-yl)pyridin-3-yl)phenyl)pyrrolidin-2-one], for which the IC50 (usually the concentration needed to halve the response being measured) fell in the range of 100 to 1000 nM at GST tagged PIP4KtypeIIB, 100 to 1000 nM against GST tagged PIP4KtypeIIA and 5 to 100 nM in assay [1].
Consider `Nc1ncc(-c2cccc3nccn23)cc1-c1ccc(N2CCCC2=O)cn1` [Example 25, 1-(2′-amino-5′-(imidazo[1,2-a]pyridin-5-yl)-[2,3′-bipyridin]-5-yl)pyrrolidin-2-one], for which the IC50 at GST tagged PIP4KtypeIIB is above 5000 nM; on GST tagged PIP4KtypeIIA, 2500 to 5000 nM; in assay [1], 1000 to 2500 nM.
In the same order, the values of `CN(C)C(=O)c1ccc(-c2cncc(-c3c[nH]c4ncccc34)c2)cc1` [Example 10, 4-(5-(1H-pyrrolo[2,3-b]pyridin-3-yl)pyridin-3-yl)-N,N-dimethylbenzamide] are 100 to 1000 nM, 100 to 1000 nM and 100 to 1000 nM.
In the same order, the values of `COC(=O)N1Cc2nccc(-c3cncc(-c4ccc(N5CCCC5=O)cc4)c3)c2C1` [Example 65, methyl 4-(5-(4-(2-oxopyrrolidin-1-yl)phenyl)pyridin-3-yl)-5,7-dihydro-6H-pyrrolo[3,4-b]pyridine-6-carboxylate] are 1000 to 2500 nM, 1000 to 2500 nM and 100 to 1000 nM.
The matching figures for `O=C(NC1COC1)c1cc2c(-c3cncc(-c4ccc(N5CCCC5=O)cc4)c3)ccnc2o1` [Example 166, N-(oxetan-3-yl)-4-(5-(4-(2-oxopyrrolidin-1-yl)phenyl)pyridin-3-yl)furo[2,3-b]pyridine-2-carboxamide]: 100 to 1000 nM, 10 to 100 nM and 5 to 100 nM.
Take `O=C(NCc1ccc2c(c1)COB2O)c1cc2c(-c3cncc(-c4ccc(N5CCCC5=O)cc4)c3)ccnc2[nH]1` [Example 276, N-((1-hydroxy-1,3-dihydrobenzo[c][1,2]oxaborol-5-yl)methyl)-4-(5-(4-(2-oxopyrrolidin-1-yl)phenyl)pyridin-3-yl)-1H-pyrrolo[2,3-b]pyridine-2-carboxamide]: the values for the IC50 (at GST tagged PIP4KtypeIIB; against GST tagged PIP4KtypeIIA; in assay [1]) were 10 to 100 nM, 100 to 1000 nM and 5 to 100 nM, respectively.
In the same order, the values of `CNC(=O)c1cc2c(-c3cncc(-c4ccc(N5CCCC5=O)cc4)c3)ccnc2o1` [Example 49, N-methyl-4-(5-(4-(2-oxopyrrolidin-1-yl)phenyl)pyridin-3-yl)furo[2,3-b]pyridine-2-carboxamide] are 10 to 100 nM, 10 to 100 nM and 5 to 100 nM.
Take `CN(C)C(=O)c1ccc(-c2cc(-c3ccnc4[nH]c(C(=O)NCC(F)(F)F)cc34)cnc2N)nc1` [Example 138, 4-(2′-amino-5-(dimethylcarbamoyl)-[2,3′-bipyridin]-5′-yl)-N-(2,2,2-trifluoroethyl)-1H-pyrrolo[2,3-b]pyridine-2-carboxamide]: the IC50 lay in the range of 10 to 100 nM on GST tagged PIP4KtypeIIB, 100 to 1000 nM against GST tagged PIP4KtypeIIA and 100 to 1000 nM in assay [1].
For `CC(O)c1cnc2[nH]cc(-c3cncc(-c4ccc(C(=O)N(C)C)cc4)c3)c2c1` (stereo not drawn) [Example 15, 4-(5-(5-(1-hydroxyethyl)-1H-pyrrolo[2,3-b]pyridin-3-yl)pyridin-3-yl)-N,N-dimethylbenzamide], the IC50 on GST tagged PIP4KtypeIIB fell in the range of 100 to 1000 nM; against GST tagged PIP4KtypeIIA, 100 to 1000 nM; in assay [1] it was 5 to 100 nM.
On to `CNC(=O)c1cc2c(-c3cncc(-c4ccc(C(=O)N(C)C)cc4)c3)ccnc2n1C` [Example 13, 4-(5-(4-(dimethylcarbamoyl)phenyl)pyridin-3-yl)-N,1-dimethyl-1H-pyrrolo[2,3-b]pyridine-2-carboxamide], for which the half-inhibitory concentration (IC50) is 1000 to 2500 nM on GST tagged PIP4KtypeIIB, 2500 to 5000 nM on GST tagged PIP4KtypeIIA and 1000 to 2500 nM in assay [1].
As to `CC(O)c1cnc2[nH]cc(-c3cncc(-c4ccc(N5CCCC5=O)cc4)c3)c2c1` (stereo not drawn) [Example 48, 1-(4-(5-(5-(1-hydroxyethyl)-1H-pyrrolo[2,3-b]pyridin-3-yl)pyridin-3-yl)phenyl)pyrrolidin-2-one], the IC50 at GST tagged PIP4KtypeIIB is 10 to 100 nM; against GST tagged PIP4KtypeIIA it was 100 to 1000 nM; in assay [1], 5 to 100 nM.
In the case of `O=C1CCCN1c1ccc(-c2cncc(-c3ccnc4cn[nH]c34)c2)cc1` [Example 220, 1-(4-(5-(2H-pyrazolo[4,3-b]pyridin-7-yl)pyridin-3-yl)phenyl)pyrrolidin-2-one], the IC50 (on GST tagged PIP4KtypeIIB; at GST tagged PIP4KtypeIIA; in assay [1]) was 100 to 1000 nM in each case.
In the case of `Cn1ncc2c(-c3cncc(-c4ccc(N5CCCC5=O)cc4)c3)cn(CC#N)c(=O)c21` [Example 160, 2-(1-methyl-7-oxo-4-(5-(4-(2-oxopyrrolidin-1-yl)phenyl)pyridin-3-yl)-1,7-dihydro-6H-pyrazolo[3,4-c]pyridin-6-yl)acetonitrile], the 50% inhibitory concentration (IC50) (at GST tagged PIP4KtypeIIB; at GST tagged PIP4KtypeIIA; in assay [1]) was 100 to 1000 nM throughout.
Turning to `Cn1cc(-c2cncc(-c3ccc(N4CCCC4=O)cc3)c2)c2cnn(C)c2c1=O` [Example 55, 1,6-dimethyl-4-(5-(4-(2-oxopyrrolidin-1-yl)phenyl)pyridin-3-yl)-1,6-dihydro-7H-pyrazolo[3,4-c]pyridin-7-one], the values for the IC50 (on GST tagged PIP4KtypeIIB; against GST tagged PIP4KtypeIIA; in assay [1]) were 100 to 1000 nM, 100 to 1000 nM and 5 to 100 nM, respectively.
`O=C1CCCN1c1ccc(-c2cncc(-c3cnc4nccn4c3)c2)cc1` [Example 275, 1-(4-(5-(imidazo[1,2-a]pyrimidin-6-yl)pyridin-3-yl)phenyl)pyrrolidin-2-one]: the IC50 at GST tagged PIP4KtypeIIB fell in the range of 2500 to 5000 nM; against GST tagged PIP4KtypeIIA, 100 to 1000 nM; in assay [1] it was 100 to 1000 nM.
Turning to `Cc1[nH]c2ncc(C(=O)N(C)C)cc2c1-c1cncc(-c2ccc(N3CCCC3=O)cc2)c1` [Example 250, N,N,2-trimethyl-3-(5-(4-(2-oxopyrrolidin-1-yl)phenyl)pyridin-3-yl)-1H-pyrrolo[2,3-b]pyridine-5-carboxamide], the IC50 on GST tagged PIP4KtypeIIB is 100 to 1000 nM; against GST tagged PIP4KtypeIIA it was 100 to 1000 nM; in assay [1], 5 to 100 nM.
Regarding `O=C1CCCN1c1ccc(-c2cncc(-c3cc(Cl)nc4n[nH]cc34)c2)cc1` [Example 224, 1-(4-(5-(6-chloro-2H-pyrazolo[3,4-b]pyridin-4-yl)pyridin-3-yl)phenyl)pyrrolidin-2-one], the results for the IC50 (on GST tagged PIP4KtypeIIB; on GST tagged PIP4KtypeIIA; in assay [1]) were 10 to 100 nM, 10 to 100 nM and 5 to 100 nM, respectively.
As for `CN(C)C(=O)c1cc2c(-c3cncc(-c4ccc(N5CCCC5=O)cc4)c3)ccnc2o1` [Example 50, N,N-dimethyl-4-(5-(4-(2-oxopyrrolidin-1-yl)phenyl)pyridin-3-yl)furo[2,3-b]pyridine-2-carboxamide], the IC50 at GST tagged PIP4KtypeIIB is 10 to 100 nM; at GST tagged PIP4KtypeIIA, 100 to 1000 nM; in assay [1] it was 5 to 100 nM.
`CN(C)C(=O)c1ccc(-c2cc(-c3ccnc(CNC(=O)c4cccc(NC(=O)OC(C)(C)C)c4)c3)cnc2N)nc1` [Example 190, tert-butyl (3-(((2′-amino-5-(dimethylcarbamoyl)-[2,3′:5′,4″-terpyridin]-2″-yl)methyl)carbamoyl)phenyl)carbamate]: the IC50 at GST tagged PIP4KtypeIIB was above 5000 nM; on GST tagged PIP4KtypeIIA, above 5000 nM; in assay [1], 2500 to 5000 nM.
Turning to `Cn1cc(-c2cncc(-c3ccc(N4CCCC4=O)cc3)c2)c2cn[nH]c2c1=O` [Example 54, 6-methyl-4-(5-(4-(2-oxopyrrolidin-1-yl)phenyl)pyridin-3-yl)-1,6-dihydro-7H-pyrazolo[3,4-c]pyridin-7-one], the figures for the IC50 (on GST tagged PIP4KtypeIIB; on GST tagged PIP4KtypeIIA; in assay [1]) were 100 to 1000 nM, 100 to 1000 nM and 5 to 100 nM, respectively.
